The text below walks through data of US11806354B2 (priority 2017, dated 2023).

Molecules are shown by their SMILES. Like-named read-outs stand apart in the source and are kept apart here.

Series [1] in a line: Dissolution testing of monolayer meloxicam/rizatriptan tablet in acidic medium (Example 4). It counts as physicochemical. The following applies: 0.01 N HCl. The source says:
The inclusion complex was the same as the inclusion complex of Example 3.

The conditions of series [2]: human beings, 15 mg intramuscular dose; cited from earlier work.
How the values of series [3] were obtained:
The effect of varying amounts of potassium carbonate (K2CO3) and sodium bicarbonate (NaHCO3) on the pH of acidic media was tested. The acidic media was chosen to simulate gastric conditions. K2CO3 or NaHCO3 was added to 50 mL of a 0.01 N HCl solution (pH 2). The pH of the solution was measured after addition of the K2CO3 or NaHCO3. Deionized water (240 mL) was then added to the mixture and pH was measured again.

The test system of the next series is migraine patients. The series is described as follows: Phase 3 placebo- and active-controlled trial, acute treatment of moderate and severe migraine (Example 11). It counts as in vivo, human.
Where [4] appears, read: monolayer tablet of Example 4, 0 min, 75 RPM, 37° C.
Setting [5] is: monolayer tablet of Example 4, 15 min.
[6] abbreviates: monolayer tablet of Example 4, 30 min.
[7] abbreviates: monolayer tablet of Example 4, 45 min.
Where [8] appears, read: monolayer tablet of Example 4, 60 min.
Setting [9] is: monolayer tablet of Example 4, 90 min.
The mark [10] stands for this setting: monolayer tablet of Example 4, 120 min.

Description for migraine patients: Exclusion criteria included cluster headaches or other types of migraines, chronic daily headache (≥15 non-migraine headache days per month), history of significant cardiovascular disease, and uncontrolled hypertension.

Turning to `Cc1cnc(NC(=O)C2=C(O)c3ccccc3S(=O)(=O)N2C)s1` [Meloxicam], the percent dissolved in series [1] (setting [4]) is 0%; in series [1] (setting [5]) it was 79%; in series [1] (setting [6]), 92%; in series [1] (setting [7]), 93%; in series [1] (setting [8]), 93%; in series [1] (setting [9]) it was 93%. This compound also showed a percent dissolved in series [1] (setting [10]) of 94%. For the same compound, the AUC0-24 of meloxicam entry in series [2] is reported as “about 27 μg·hr/mL”.
Regarding `O=C([O-])O.[Na+]` [NaHCO3, sodium bicarbonate], the pH in series [3] (300 mg added to 50 mL 0.01 N HCl) is recorded as 5.90; in series [3] (750 mg added to 50 mL 0.01 N HCl) it was 8.30; in series [3] (1000 mg, 0.01 N HCl + 240 mL water), 8.60.
In series [1] (setting [4]), `CN(C)CCc1c[nH]c2ccc(Cn3cncn3)cc12` [Rizatriptan] gave a percent dissolved of 0%. For the same compound, the percent dissolved in series [1] (setting [5]) was 89%. In series [1] (setting [6]), this compound yielded a percent dissolved of 102%. The percent dissolved in series [1] (setting [7]) is recorded as 103%. The percent dissolved in series [1] (setting [8]) is reported as 103%. Moreover, the percent dissolved in series [1] (setting [9]) is on record as 103%. This compound showed a percent dissolved in series [1] (setting [10]) of 103%. Besides, the “patients experiencing relapse of pain” value in the series on migraine patients (48-hour period after dosing) worked out at 45.2%. Besides, the “percentage of patients with sustained pain freedom” value in the series on migraine patients (2 hours to 48 hours) is listed as 8.8%. Moreover, in the series with migraine patients (24 hours after taking), the “probability of experiencing pain relief” value is on record as “approximately 60%”. Further, in the series on migraine patients (in vivo), the “Any Treatment-Emergent Adverse Event, number of subjects” value amounted to 67; the “Dizziness, % of subjects” value was 2.1%; the “Dizziness, number of subjects” value is listed as 9; the “Nausea, % of subjects” value stood at 4.8%. Moreover, in the series with migraine patients (in vivo), the “Nausea, number of subjects” value is 21; the “Somnolence, % of subjects” value is on record as 2.1%; the “Somnolence, number of subjects” value is listed as 9; the “median time to pain relief” value worked out at 4 h.
